Experimental data published in patent US20240009143A1, “EXTRACTION OF SHIKONIN FROM ARNEBIA DECUMBENS ROOTS AND USE OF SHIKONIN DERIVATIVES FOR TREATING ULCERS” (KUWAIT UNIVERSITY, priority 2022, published 2024).

Tested on: Heliobacter pylori
Test: In vitro testing on H. pylori
Type: cell-based
Settings: dose of 0.06 mg
Procedure: The biological activity of the 4 shikonin derivatives were tested against 2 microorganisms Heliobacter pylori (H. pylori or HP) and Candida albicans (C. albicans).

| Structure (SMILES) | inhibition associated with H. pylori [%] |
| --- | --- |
| CC(=O)O[C@H](CC=C(C)C)C1=CC(=O)c2c(O)ccc(O)c2C1=O [compound D, acetylshikonin] | 41.6 |
| CC(C)=CC[C@@H](O)C1=CC(=O)c2c(O)ccc(O)c2C1=O [compound E, shikonin] | 41.6 |
